One assay deals with T1, NRP1 (Neuropilin 1) (Homo sapiens, UniProt O14786).
T1 construct: recombinant human NRP1
The assay can be described thus: plate-based competitive binding assay: displacement of biotinylated VEGFA from coated recombinant human NRP1 (chemiluminescence). The assay is classed as biochemical. From the text: plate-based competitive binding assay: displacement of biotinylated VEGFA from coated recombinant human NRP1 (chemiluminescence) on NRP1 (Neuropilin 1) | NRPa-308 inhibited VEGFA/NRP1 and VEGFA/NRP2 binding in a dose-dependent manner

The target in another assay is T2, NRP2 (Neuropilin 2) (Homo sapiens, UniProt O60462).
T2 construct: recombinant human NRP2
T2 sequence (O60462 21-931): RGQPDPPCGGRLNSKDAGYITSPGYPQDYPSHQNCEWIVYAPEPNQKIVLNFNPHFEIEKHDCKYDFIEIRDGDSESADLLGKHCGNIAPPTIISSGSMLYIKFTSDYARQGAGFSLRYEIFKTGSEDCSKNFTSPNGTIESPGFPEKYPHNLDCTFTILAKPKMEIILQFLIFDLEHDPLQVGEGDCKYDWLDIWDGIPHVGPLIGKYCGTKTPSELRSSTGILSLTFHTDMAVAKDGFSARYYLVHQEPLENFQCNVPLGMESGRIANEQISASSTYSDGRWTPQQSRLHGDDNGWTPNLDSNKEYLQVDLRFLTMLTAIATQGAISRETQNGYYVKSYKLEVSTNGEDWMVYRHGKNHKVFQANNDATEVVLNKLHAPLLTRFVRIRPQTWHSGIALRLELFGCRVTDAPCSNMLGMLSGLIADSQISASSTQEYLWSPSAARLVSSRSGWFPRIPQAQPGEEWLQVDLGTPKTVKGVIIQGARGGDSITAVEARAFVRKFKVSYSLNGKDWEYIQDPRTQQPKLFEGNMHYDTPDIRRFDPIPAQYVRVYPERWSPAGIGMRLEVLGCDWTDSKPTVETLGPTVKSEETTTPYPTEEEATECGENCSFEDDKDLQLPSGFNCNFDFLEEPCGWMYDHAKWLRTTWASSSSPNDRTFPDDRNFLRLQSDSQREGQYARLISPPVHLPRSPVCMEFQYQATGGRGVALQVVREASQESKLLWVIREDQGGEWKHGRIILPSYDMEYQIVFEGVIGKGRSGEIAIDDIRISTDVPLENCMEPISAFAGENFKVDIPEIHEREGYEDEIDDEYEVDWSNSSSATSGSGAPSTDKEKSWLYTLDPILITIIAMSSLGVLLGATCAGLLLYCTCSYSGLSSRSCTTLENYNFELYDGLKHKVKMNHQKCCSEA
The assay can be described thus: plate-based competitive binding assay: displacement of biotinylated VEGFA, or of VEGFC, from coated recombinant human NRP2 (chemiluminescence). The assay is classed as biochemical. From the text:
plate-based competitive binding assay: displacement of biotinylated VEGFA, or of VEGFC, from coated recombinant human NRP2 (chemiluminescence) on NRP2 (Neuropilin 2) | NRPa-308 inhibited VEGFA/NRP1 and VEGFA/NRP2 binding in a dose-dependent manner

Each structure is given as a SMILES string.

Experimental findings from paper PMC7812727, “Neuropilin 1 and Neuropilin 2 gene invalidation or pharmacological inhibition reveals their relevance for the treatment of metastatic renal cell carcinoma” (Journal of Experimental & Clinical Cancer Research : CR, 2021) are described below.

T1 sequence (O14786 22-923): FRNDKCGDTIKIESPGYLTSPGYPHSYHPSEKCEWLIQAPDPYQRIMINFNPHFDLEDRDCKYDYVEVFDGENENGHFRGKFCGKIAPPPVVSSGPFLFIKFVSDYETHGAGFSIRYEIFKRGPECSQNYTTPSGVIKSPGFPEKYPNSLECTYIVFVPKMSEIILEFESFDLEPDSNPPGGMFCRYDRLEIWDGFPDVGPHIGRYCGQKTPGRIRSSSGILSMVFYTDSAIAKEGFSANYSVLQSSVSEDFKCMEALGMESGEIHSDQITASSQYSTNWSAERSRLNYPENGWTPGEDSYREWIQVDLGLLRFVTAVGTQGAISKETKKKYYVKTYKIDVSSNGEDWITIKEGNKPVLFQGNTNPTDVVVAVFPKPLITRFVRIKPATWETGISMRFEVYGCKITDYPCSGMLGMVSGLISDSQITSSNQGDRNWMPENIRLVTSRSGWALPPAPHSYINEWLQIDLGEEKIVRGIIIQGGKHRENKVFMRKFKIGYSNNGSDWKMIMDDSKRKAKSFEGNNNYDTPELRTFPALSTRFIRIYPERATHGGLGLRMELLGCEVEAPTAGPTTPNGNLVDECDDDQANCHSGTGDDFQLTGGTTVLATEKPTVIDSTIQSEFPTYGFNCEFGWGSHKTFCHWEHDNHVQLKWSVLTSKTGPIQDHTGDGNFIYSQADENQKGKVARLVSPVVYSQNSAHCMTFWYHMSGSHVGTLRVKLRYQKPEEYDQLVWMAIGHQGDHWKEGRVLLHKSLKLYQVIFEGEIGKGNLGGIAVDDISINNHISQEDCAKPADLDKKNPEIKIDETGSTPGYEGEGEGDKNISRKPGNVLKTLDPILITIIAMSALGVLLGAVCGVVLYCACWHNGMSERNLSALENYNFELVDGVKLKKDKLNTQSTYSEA

Take `CCOc1ccccc1NC(=O)c1ccc(C)c(S(=O)(=O)Nc2ccc(C)cc2)c1` [NRPa-308]: the “% maximal inhibition” value on NRP1 (Neuropilin 1) and on NRP2 (Neuropilin 2) was ~ 40 % maximal inhibition throughout.
